The text below walks through data of ChEMBL document CHEMBL4665747, “Glycosides and Glycoconjugates of the Diterpenoid Isosteviol with a 1,2,3-Triazolyl Moiety: Synthesis and Cytotoxicity Evaluation” (J Nat Prod, 2020).

Assay [1] in a line: Cytotoxicity against human Chang liver cells assessed as reduction in cell viability after 24 hrs by DAPI staining-based fluorescence assay.
Assay [2] in a line: Selectivity index, ratio of IC50 for human chang liver cells to IC50 for human HelaM cells.
Another assay has as its system WI-38. Briefly: Cytotoxicity against human WI-38 cells assessed as reduction in cell viability after 24 hrs by DAPI staining-based fluorescence assay. The settings on record: WI-38, 24 h.
Assay [3] relates to M-HeLa. Nature of the assay: Induction of apoptosis in human HelaM cells assessed as viable cells at 10 uM after 24 hrs by V-FITC/propidium iodide staining-based flow cytometric analysis (reference value: 93.33 %). The assay is classed as functional. The settings on record: read-out: Activity.
The subject of assay [4] is M-HeLa. Nature of the assay: Induction of mitochondrial membrane potential loss in human HelaM cells assessed as cell population with intact mitochondrial membrane potential at 10 uM by JC-10 staining-based flow cytometric analysis (reference value: 77.48 %). The assay is classed as functional. In general terms: In flow cytometry, cells or beads pass a laser one at a time.

The subject of assay [5] is M-HeLa. Briefly: Induction of apoptosis in human HelaM cells assessed as necrotic cells at 10 uM after 24 hrs by V-FITC/propidium iodide staining-based flow cytometric analysis (reference value: 4.55 %). The assay is classed as functional.
Assay [6] relates to M-HeLa. Briefly: Induction of apoptosis in human HelaM cells assessed as early apoptotic cells at 25 uM after 24 hrs by V-FITC/propidium iodide staining-based flow cytometric analysis (reference value: 1.5 %). The assay is classed as functional.
The subject of assay [7] is M-HeLa. Nature of the assay: Cytotoxicity against human HelaM cells assessed as reduction in cell viability after 24 hrs by DAPI staining-based fluorescence assay. The assay is classed as functional.
The subject of assay [8] is M-HeLa. Briefly: Induction of apoptosis in human HelaM cells assessed as late apoptotic cells at 10 uM after 24 hrs by V-FITC/propidium iodide staining-based flow cytometric analysis (reference value: 0.62 %). The assay is classed as functional.
Assay [9] deals with M-HeLa. Nature of the assay: Induction of apoptosis in human HelaM cells assessed as necrotic cells at 25 uM after 24 hrs by V-FITC/propidium iodide staining-based flow cytometric analysis (reference value: 4.55 %). The assay is classed as functional.
For assay [10], the system named is M-HeLa. Nature of the assay: Induction of apoptosis in human HelaM cells assessed as late apoptotic cells at 25 uM after 24 hrs by V-FITC/propidium iodide staining-based flow cytometric analysis (reference value: 0.62 %). The assay is classed as functional.
For a further assay, the system named is MCF7. Briefly: Cytotoxicity against human MCF7 cells assessed as reduction in cell viability after 24 hrs by DAPI staining-based fluorescence assay. To be noted: MCF7, 24 h. The assay is classed as functional.
For assay [11], the system named is M-HeLa. Nature of the assay: Induction of apoptosis in human HelaM cells assessed as viable cells at 25 uM after 24 hrs by V-FITC/propidium iodide staining-based flow cytometric analysis (reference value: 93.33 %). To be noted: read-out: Activity. The assay is classed as functional.
For assay [12], the system named is M-HeLa. Briefly: Induction of apoptosis in human HelaM cells assessed as early apoptotic cells at 10 uM after 24 hrs by V-FITC/propidium iodide staining-based flow cytometric analysis (reference value: 1.5 %). The assay is classed as functional.
Assay [13] relates to M-HeLa. Briefly: Induction of mitochondrial membrane potential loss in human HelaM cells assessed as cell population with intact mitochondrial membrane potential at 25 uM by JC-10 staining-based flow cytometric analysis (reference value: 77.48 %). The assay is classed as functional.
The subject of assay [14] is M-HeLa. Briefly: Induction of mitochondrial membrane potential loss in human HelaM cells assessed as cell population with mitochondrial membrane potential collapse at 25 uM by JC-10 staining-based flow cytometric analysis (reference value: 22.17 %). The assay is classed as functional.
The subject of assay [15] is M-HeLa. Nature of the assay: Induction of mitochondrial membrane potential loss in human HelaM cells assessed as cell population with mitochondrial membrane potential collapse at 10 uM by JC-10 staining-based flow cytometric analysis (reference value: 22.17 %). The assay is classed as functional.
In assay [16] the test system is M-HeLa. Nature of the assay: Induction of apoptosis in human HelaM cells assessed as increase in p53 level at 10 uM incubated for 24 hrs. The assay is classed as functional, cell-based.
In assay [17] the test system is M-HeLa. Briefly: Induction of apoptosis in human HelaM cells assessed as increase in Bad level at 10 uM incubated for 24 hrs. The assay is classed as functional, cell-based.
Assay [18] has as its system M-HeLa. Briefly: Induction of apoptosis in human HelaM cells assessed as increase in caspase-9 level at 10 uM incubated for 24 hrs. The assay is classed as functional, cell-based.
For assay [19], the system named is M-HeLa. Nature of the assay: Induction of apoptosis in human HelaM cells assessed as increase in caspase-8 level at 10 uM incubated for 24 hrs. The assay is classed as functional, cell-based.
For assay [20], the system named is M-HeLa. Nature of the assay: Induction of apoptosis in human HelaM cells assessed as increase in Bcl2 level at 10 uM incubated for 24 hrs. The assay is classed as functional, cell-based.
In assay [21] the test system is M-HeLa. Nature of the assay: Induction of apoptosis in human HelaM cells assessed as increase in Akt level at 10 uM incubated for 24 hrs. The assay is classed as functional, cell-based.
Assay [22] deals with M-HeLa. Briefly: Induction of apoptosis in human HelaM cells assessed as increase in JNK level at 10 uM incubated for 24 hrs. The assay is classed as functional, cell-based.

Active and inactive are the calls of the source. No cut-off for these calls is given here.

`COc1cccc2c1C(=O)c1c(O)c3c(c(O)c1C2=O)C[C@@](O)(C(=O)CO)C[C@@H]3O[C@H]1C[C@H](N)[C@H](O)[C@H](C)O1` [DOXORUBICIN]: the IC50 – broadly, the point on the concentration scale where inhibition reaches its midpoint – in assay [1] worked out at 3 µM.
In the case of `CC(=O)O[C@@H]1[C@H](OC(C)=O)[C@H](OC(C)=O)CO[C@H]1n1cc(COC(=O)[C@]2(C)CCC[C@@]3(C)[C@@H]4CC[C@@]5(C)C[C@]4(CC[C@@H]32)CC5=O)nn1`, the “Ratio IC50” value in assay [2] was above 59. For the same molecule, the IC50 in the assay with WI-38 was 40 µM; in the assay with M-HeLa [7], 1.7 µM; in assay [1], above 100 µM; in the assay with MCF7, above 10 µM. Moreover, the viability at 10 µM in the assay on M-HeLa [3] was 81.9%. Further, the Activity is listed as 59.62% in the assay with M-HeLa [4]; 0.34% in the assay on M-HeLa [5]; 8.57% in the assay with M-HeLa [6]; 8.21% in the assay with M-HeLa [8]; 0.66% in the assay on M-HeLa [9]; 11.59% in the assay on M-HeLa [10]. Further, the Activity in the assay on M-HeLa [12] was 9.53%; in the assay with M-HeLa [13], 13.46%; with M-HeLa [14], 86.44%; with M-HeLa [15], 40.23%. In addition, the viability at 25 µM in the assay on M-HeLa [11] stood at 79.2%.
For the molecule `CC(=O)OC[C@H]1O[C@@H](n2cc(COC(=O)[C@]3(C)CCC[C@@]4(C)[C@@H]5CC[C@@]6(C)C[C@]5(CC[C@@H]43)CC6=O)nn2)[C@H](OC(C)=O)[C@@H](OC(C)=O)[C@H]1OC(C)=O`, in [2], the “Ratio IC50” value was above 56. Besides, the IC50 in the assay with WI-38 is 69.7 µM; with M-HeLa [7] it was 1.8 µM; in assay [1], above 100 µM; in the assay on MCF7, above 10 µM. Moreover, the result in the assay with M-HeLa [16], with M-HeLa [17], in the assay on M-HeLa [18], in the assay with M-HeLa [19], in the assay with M-HeLa [20] and in the assay with M-HeLa [21] was Active. Also, in the assay with M-HeLa [22], the outcome was Active. Besides, in the assay on M-HeLa [3], the viability at 10 µM came out at 82%. Further, the Activity with M-HeLa [4] is recorded as 59.16%; in the assay with M-HeLa [5], 0.91%; in the assay on M-HeLa [6], 9.53%; with M-HeLa [8], 9.09%; in the assay on M-HeLa [9], 1.26%; with M-HeLa [10], 11.5%. Further, the Activity in the assay with M-HeLa [12] is recorded as 7.95%; in the assay on M-HeLa [13] it was 15.35%; in the assay with M-HeLa [14], 84.65%; in the assay on M-HeLa [15] it was 40.74%. In addition, the viability at 25 µM with M-HeLa [11] is 77.7%.
As for `CC(=O)OC[C@H]1O[C@@H](n2cc(COC(=O)[C@]3(C)CCC[C@@]4(C)[C@@H]5CC[C@@]6(C)C[C@]5(CC[C@@H]43)CC6=O)nn2)[C@H](OC(C)=O)[C@@H](OC(C)=O)[C@@H]1OC(C)=O`, the “Ratio IC50” value in assay [2] is on record as 8.5. The IC50 with WI-38 is 36 µM; in the assay with M-HeLa [7] it was 8 µM; in assay [1] it was 68.3 µM; in the assay on MCF7, above 10 µM.
On to `CC(=O)OC[C@H]1O[C@@H](n2cc(COC(=O)[C@]3(C)CCC[C@@]4(C)[C@@H]5CC[C@@]6(C)C[C@]5(CC[C@@H]43)CC6=O)nn2)[C@H](OC(C)=O)[C@@H]1OC(C)=O`, for which the “Ratio IC50” value in [2] is given as above 53. Further, the IC50 in the assay with WI-38 is above 100 µM; with M-HeLa [7], 1.9 µM; in assay [1] it was above 100 µM; in the assay with MCF7, above 10 µM. In the assay with M-HeLa [3], the viability at 10 µM was 67.3%. Besides, the Activity in the assay on M-HeLa [4] was determined as 55.17%; in the assay on M-HeLa [5], 0.03%; with M-HeLa [6], 22.44%; in the assay with M-HeLa [8], 20.94%; with M-HeLa [9], 0%; in the assay on M-HeLa [10], 23.66%. Also, the Activity in the assay on M-HeLa [12] is 11.71%; in the assay with M-HeLa [13], 9.86%; with M-HeLa [14], 90.09%; with M-HeLa [15], 44.73%. Besides, in the assay on M-HeLa [11], the viability at 25 µM is 53.9%.
